# Data taken from ChEMBL document CHEMBL3351974, “Development of constrained tamoxifen mimics and their antiproliferative properties against breast cancer cells” (Bioorg Med Chem Lett, 2015).
# Where a name gives a salt, the structure may show the parent alone.
# Test system: not listed separately
# Experiment: Antiproliferative activity against human MEpiC cells after 48 hrs by MTT assay
# Type: cell-based
# Conditions: not given
row,Structure (SMILES),IC50 [µM]
1,COc1ccc(OC(=O)C#Cc2ccccc2)cc1,19.1
2,O=C1C=CC2(C=C1)OC(=O)C(I)=C2c1ccccc1,6.33
3,O=C1C=CC2(C=C1)OC(=O)C(c1cc3ccccc3s1)=C2c1ccccc1,10.8
4,O=C1C=CC2(C=C1)OC(=O)C(c1ccc(F)cc1)=C2c1ccccc1,11.1
5,O=C1C=CC2(C=C1)OC(=O)C(c1cc3ccccc3o1)=C2c1ccccc1,66.5
6,O=C1C=CC2(C=C1)OC(=O)C(c1ccc(O)cc1)=C2c1ccccc1,16.8
7,O=C1C=CC2(C=C1)OC(=O)C(c1ccc([N+](=O)[O-])cc1)=C2c1ccccc1,66.5
8,COc1ccc(C2=C(c3ccccc3)C3(C=CC(=O)C=C3)OC2=O)cc1,11.7
9,O=C1C=CC2(C=C1)OC(=O)C(c1ccc(CO)cc1)=C2c1ccccc1,3.86
10,COc1cc(C2=C(c3ccccc3)C3(C=CC(=O)C=C3)OC2=O)cc(OC)c1OC,6.61
11,COc1ccc(F)cc1C1=C(c2ccccc2)C2(C=CC(=O)C=C2)OC1=O,13.5
12,COc1c(Br)cc(C)cc1C1=C(c2ccccc2)C2(C=CC(=O)C=C2)OC1=O,14.7
13,O=C1C=CC2(C=C1)OC(=O)C(c1ccc3c(c1)OCO3)=C2c1ccccc1,34.2
14,N#Cc1ccc(C2=C(c3ccccc3)C3(C=CC(=O)C=C3)OC2=O)cc1,8.89
15,O=C1C=CC2(C=C1)OC(=O)C(c1ccc(C(=O)O)cc1)=C2c1ccccc1,10.4
16,O=Cc1ccc(C2=C(c3ccccc3)C3(C=CC(=O)C=C3)OC2=O)s1,7.08
17,O=C1C=CC2(C=C1)OC(=O)C=C2c1ccccc1,7.67

# Test system: MCF7
# Experiment: Antiproliferative activity against human MCF7 cells after 48 hrs by MTT assay
# Type: functional, cell-based
# Conditions: MCF7, 48 h
row,IC50 [µM],Structure (SMILES)
1,52.6,COc1ccc(OC(=O)C#Cc2ccccc2)cc1
2,41.5,O=C1C=CC2(C=C1)OC(=O)C(I)=C2c1ccccc1
3,5.9,O=C1C=CC2(C=C1)OC(=O)C(c1cc3ccccc3s1)=C2c1ccccc1
4,6.32,O=C1C=CC2(C=C1)OC(=O)C(c1ccc(F)cc1)=C2c1ccccc1
5,5.8,O=C1C=CC2(C=C1)OC(=O)C(c1cc3ccccc3o1)=C2c1ccccc1
6,6,O=C1C=CC2(C=C1)OC(=O)C(c1ccc(O)cc1)=C2c1ccccc1
7,5.99,O=C1C=CC2(C=C1)OC(=O)C(c1ccc([N+](=O)[O-])cc1)=C2c1ccccc1
8,5.86,COc1ccc(C2=C(c3ccccc3)C3(C=CC(=O)C=C3)OC2=O)cc1
9,5.76,O=C1C=CC2(C=C1)OC(=O)C(c1ccc(CO)cc1)=C2c1ccccc1
10,5.79,COc1cc(C2=C(c3ccccc3)C3(C=CC(=O)C=C3)OC2=O)cc(OC)c1OC
11,5.73,COc1ccc(F)cc1C1=C(c2ccccc2)C2(C=CC(=O)C=C2)OC1=O
12,5.85,COc1c(Br)cc(C)cc1C1=C(c2ccccc2)C2(C=CC(=O)C=C2)OC1=O
13,5.81,O=C1C=CC2(C=C1)OC(=O)C(c1ccc3c(c1)OCO3)=C2c1ccccc1
14,19,N#Cc1ccc(C2=C(c3ccccc3)C3(C=CC(=O)C=C3)OC2=O)cc1
15,5.95,O=C1C=CC2(C=C1)OC(=O)C(c1ccc(C(=O)O)cc1)=C2c1ccccc1
16,6.23,O=Cc1ccc(C2=C(c3ccccc3)C3(C=CC(=O)C=C3)OC2=O)s1
17,6.46,O=C1C=CC2(C=C1)OC(=O)C=C2c1ccccc1

# Test system: MDA-MB-231
# Experiment: Antiproliferative activity against human MDA-MB-231 cells after 48 hrs by MTT assay
# Type: functional, cell-based
# Conditions: MDA-MB-231, 48 h
row,IC50 [µM],Structure (SMILES)
1,6.66,COc1ccc(OC(=O)C#Cc2ccccc2)cc1
2,7.51,O=C1C=CC2(C=C1)OC(=O)C(I)=C2c1ccccc1
3,32.9,O=C1C=CC2(C=C1)OC(=O)C(c1cc3ccccc3s1)=C2c1ccccc1
4,38.6,O=C1C=CC2(C=C1)OC(=O)C(c1ccc(F)cc1)=C2c1ccccc1
5,21.2,O=C1C=CC2(C=C1)OC(=O)C(c1cc3ccccc3o1)=C2c1ccccc1
6,61,O=C1C=CC2(C=C1)OC(=O)C(c1ccc(O)cc1)=C2c1ccccc1
7,19,O=C1C=CC2(C=C1)OC(=O)C(c1ccc([N+](=O)[O-])cc1)=C2c1ccccc1
8,64,COc1ccc(C2=C(c3ccccc3)C3(C=CC(=O)C=C3)OC2=O)cc1
9,8.85,O=C1C=CC2(C=C1)OC(=O)C(c1ccc(CO)cc1)=C2c1ccccc1
10,9.73,COc1cc(C2=C(c3ccccc3)C3(C=CC(=O)C=C3)OC2=O)cc(OC)c1OC
11,10,COc1ccc(F)cc1C1=C(c2ccccc2)C2(C=CC(=O)C=C2)OC1=O
12,9.45,COc1c(Br)cc(C)cc1C1=C(c2ccccc2)C2(C=CC(=O)C=C2)OC1=O
13,9.12,O=C1C=CC2(C=C1)OC(=O)C(c1ccc3c(c1)OCO3)=C2c1ccccc1
14,8.74,N#Cc1ccc(C2=C(c3ccccc3)C3(C=CC(=O)C=C3)OC2=O)cc1
15,15.2,O=C1C=CC2(C=C1)OC(=O)C(c1ccc(C(=O)O)cc1)=C2c1ccccc1
16,19.8,O=Cc1ccc(C2=C(c3ccccc3)C3(C=CC(=O)C=C3)OC2=O)s1
17,15.9,O=C1C=CC2(C=C1)OC(=O)C=C2c1ccccc1
18,4.06,COc1cccc2c1C(=O)c1c(O)c3c(c(O)c1C2=O)C[C@@](O)(C(=O)CO)C[C@@H]3O[C@H]1C[C@H](N)[C@H](O)[C@H](C)O1 [DOXORUBICIN HYDROCHLORIDE]
